Test results published in US8343939B2, “Methods of modulating angiogenesis” (Joslin Diabetes Center, Inc., priority 2007, dated 2013).

What was measured:
[1] = system: eNOS Ser1179 phosphorylation; experiment: Western blot of eNOS phosphorylation in BAEC; assay type: cell-based, bovine; conditions: for eNOS Ser1179 phosphorylation increased during stimulation: insulin 100 nM or VEGF 1 nM
Method: (§1) Bovine aortic endothelial cells (BAEC) were isolated by scraping the luminal side of a calf aorta with a cover glass and transferring the harvested material to a 100 mm cell culture dish. The primary culture and subcultures were grown in Dulbecco's modified Eagle medium (DMEM) with 5.5 mM glucose, 10% (v/v) horse serum, 25 mM HEPES, 100 U/ml penicillin, and 100 μg/ml streptomycin in collagen I-coated dishes (BioCoat, BD BioSciences). Purity of the cultures was validated by the presence of typical “cobblestone” morphology during phase-contrast microscopy (16) and by the ability of cells to take up acetylated LDL (DiI AcLDL, Molecular Probes, Eugene, Oreg.). Cultures used for experiments were plated in 6-well plates (9.5 cm^2 wells), except for PKC translocation assays (see below). The cells were serum-starved for 16 hours before stimulation by replacing growth medium with DMEM containing 0.1% (w/v) bovine serum albumin. At the time of stimulation, cultures were typically 3 days old and confluent. GF109203X (GFX) (Calbiochem, San Diego, Calif.), wortmannin (Calbiochem), phorbol-12-myristate-13-acetate (PMA) (Sigma, St. Louis, Mo.), bovine insulin (Sigma), and VEGF-A165 (R & D Systems, Minneapolis, Minn.) were added directly to the culture medium when indicated, using an identical volume of solvent as control.
(§2) Cultures were washed twice with ice-cold PBS and lysed in a buffer containing Tris (20 mM, pH 7.5), Triton X-100 (1% v/v), sodium pyrophosphate (2.5 mM); NaF (10 mM), NaCl (140 mM), EDTA (1 mM), EGTA (1 mM), β-glycerophosphate (1 mM), Na3VO4 (1 mM), leupeptin (1 μg/ml=2 μM), aprotinin (1 μg/ml=[…]), and phenylmethylsulfonylfluoride (1 mM). Protein concentration was measured by the Bradford method and samples reduced in modified Laemmli buffer (Invitrogen) and heated at 70° C. for 10 minutes. Equal sample volume and protein mass and reduced samples were separated on precast minigels (NuPAGE tris-acetate gels, Invitrogen) and electrotransferred to nitrocellulose.
(§3) Primary antibody targets were visualized by incubation with horseradish peroxidase-linked secondary antibodies, enhanced chemiluminescence (Amersham Biosciences (currently GE Healthcare), Piscataway, N.J.), and exposure to X-ray film (Kodak, New Haven, Conn.). The film was scanned and signal intensity of protein bands quantitated with ImageQuant software (version 5.1, Molecular Dynamics/Amersham Biosciences/GE Healthcare, Piscataway, N.J.). The intensity of phospho-specific immunoblot was normalized to the intensity of the unstimulated condition and of the nonphospho-specific protein.
BAEC were stimulated with insulin (100 nM, 5 minutes) or VEGF (1 nM, 5 minutes) after pretreatment with PMA (100 nM, 30 minutes) or vehicle as a control (DMSO, 0.2% (v/v)). Akt and eNOS phosphorylation in the BAEC was examined. In some experiments (FIGS. 1C and 1D), BAEC were also incubated with GFX (1 μM) or vehicle (DMSO 0.2%) 60 minutes before insulin or VEGF stimulation.
(§4) BAEC were stimulated with insulin (100 nM, 5 minutes) or VEGF (1 nM, 5 minutes) after pretreatment with wortmannin (100 nM, 30 minutes before insulin or VEGF stimulation) or vehicle (DMSO 0.2% (v/v)). In some experiments (FIG. 2C), BAEC were incubated with wortmannin (60 minutes before VEGF stimulation) or DMSO, then with PMA (30 minutes before VEGF stimulation) or DMSO.

[2] = system: Akt Ser473 phosphorylation; experiment: Western blot of Akt phosphorylation in BAEC; assay type: cell-based, bovine; conditions: for Akt Ser473 phosphorylation increased after stimulation: BAEC, insulin 100 nM or VEGF 1 nM; for decrease in Akt Ser473 phosphorylation: PMA 100 nM, 30 minutes
Method: as §1, §2, §3
BAEC were stimulated with insulin (100 nM, 5 minutes) or VEGF (1 nM, 5 minutes) after pretreatment with PMA (100 nM, 30 minutes) or vehicle as a control (DMSO, 0.2% (v/v)). Akt and eNOS phosphorylation in the BAEC was examined. […]
as §4

PKCα = PKCα (Bos taurus, UniProt P04409); experiment: Membrane translocation of PKC isoforms (cell fractionation, immunoblot) in BAEC; assay type: cell-based, bovine; conditions: for translocation of PKCα from cytosol to membrane fractions: VEGF 1 nM, 3, 10 or 30 minutes, PMA 100 nM, 10 minutes
Erk1/2 phosphorylation = experiment: Western blot of Erk1/2 phosphorylation in BAEC; assay type: cell-based, bovine; conditions: control siRNA; VEGF 1 nM, 5 minutes
Method: as §2, §3

BAEC = experiment: DNA synthesis by BrdU incorporation in BAEC; assay type: cell-based, bovine; conditions: control siRNA condition; VEGF 1 nM
Method: For measurement of DNA synthesis, cells were trypsin-treated 2 days after transfection with siRNA, and 10,000 cells were added to each well (0.32 cm^2) of 96-well plates in serum-free DMEM with 0.1% BSA, with or without VEGF 1 nM. After 16 hours, cells were labeled with 5-bromo-2′-deoxyuridine (BrdU) according to the manufacturer's instructions (Roche Applied Science, Penzberg, Germany). In short, the medium was replaced with medium containing 10 μM BrdU. After an additional 8 hours, cells were fixed and incubated with anti-BrdU antibody conjugated with peroxidase. After washing, a solution of tetramethyl-benzidine was added, and the color reaction quantitated by measuring the difference between the optical density at 370 and 492 nm.

VEGFR2 = VEGFR2 protein expression (immunoprecipitation and immunoblot) in BAEC; assay type: cell-based, bovine; conditions: cells transfected with control siRNA; VEGF 1 nM, 5 minutes
Method: For VEGFR2 and VEGFR1 immunoprecipitation, approximately 1 mg of protein was immunoprecipitated with 20 μg polyclonal antibody (Santa Cruz Biotechnology, Santa Cruz, Calif.) and washed 3 times with lysis buffer. Whole cell lysate or immunoprecipitates were reduced by addition of modified Laemmli buffer (Invitrogen) and heating to 70° C. for 10 minutes. Samples were then separated on precast minigels (NuPAGE tris-acetate gels, Invitrogen) and electrotransferred to a nitrocellulose membrane. […]
Primary antibody targets were visualized by incubation with horseradish peroxidase-linked secondary antibodies, enhanced chemiluminescence (Amersham Biosciences (currently GE Healthcare), Piscataway, N.J.), and exposure to X-ray film (Kodak, New Haven, Conn.). The film was scanned and signal intensity of protein bands quantitated with ImageQuant software (version 5.1, Molecular Dynamics/Amersham Biosciences/GE Healthcare, Piscataway, N.J.). […]

PKCδ = conditions: for translocation of PKCδ from cytosol to membrane fractions: VEGF 1 nM, 3, 10 or 30 minutes, PMA 100 nM, 10 minutes
Method: (§5) For each condition, three 15 cm plates (each 151 cm^2) were used. After stimulation, the plates were washed twice in ice-cold PBS and once in a hypertonic lysis buffer (Buffer A) containing Tris (pH 7.5, 20 mM), sucrose (300 mM), EDTA (2 mM), EGTA (0.5 mM), DTT (1 mM), leupeptin (10 μg/ml), and PMSF (1 mM). Each set of 3 plates were then scraped in a combined volume of 3 ml of hypertonic buffer, homogenized in a glass Dounce homogenizer, and centrifuged at 1,000×g for 10 minutes. The supernatant was ultracentrifuged at 100,000×g for 30 minutes, and the ensuing supernatant was taken aside and used as the cytosolic fraction. The pellet was washed once in Buffer B (Buffer A without sucrose), then homogenized in 2.7 ml Buffer B in a glass Dounce homogenizer, and finally lysed by adding 0.3 ml Triton X-100 to a final concentration of 1% (v/v) and rotated for 30 minutes. After ultracentrifugation at 100,000×g for 30 minutes, the supernatant was taken aside and used as the membrane fraction. By using similar volumes for the initial lysis and for the membrane pellet, protein abundance in the cytosol and membrane fraction approximately represent their relative expression in the intact cell. Protein concentration was measured in both fractions with the bicinchoninic acid (BCA) assay, and samples were normalized for protein concentration and assayed by electrophoresis and Western blotting as described below.
(§6) BAEC were stimulated with VEGF (1 nM; 3, 10, or 30 minutes) or PMA (100 nM, 10 minutes).

PKCε = conditions: for translocation of PKCε from cytosol to membrane fractions: VEGF 1 nM, 3, 10 or 30 minutes, PMA 100 nM, 10 minutes
Method: as §5, §6

eNOS, Akt, Erk, or p38 = experiment: Phosphorylation of eNOS, Akt, Erk, p38 after placental growth factor in BAEC; assay type: cell-based, bovine; conditions: data not shown
Method: Next, VEGFR1 and VEGFR2 expression was examined. BAEC were transfected with siRNA, including the PKCε siRNA used in the previous experiments (abbreviated “ε1” here) and a second PKCε (“ε2”), grown, and serum-starved. VEGFR2 (a) or VEGFR1 (b) mRNA was measured in cell lysate by real-time PCR VEGF signal transduction during PKC knockdown could change because VEGFR2 expression results in a secondary change in VEGFR1/Fms-like tyrosine kinase-1 (Flt-1) expression. Indeed, PKCα and PKCδ knockdown increased VEGFR1 mRNA expression to 240±20 and 178±1% of the control siRNA condition, respectively (FIG. 12b, p<0.01). […] VEGFR1 protein or VEGFR1-mediated signal transduction was not detected by Western blotting in these cells. […] Thus, VEGFR1 protein is likely expressed at a very low level compared to VEGFR2 in BAEC. Changes seen in VEGF signal transduction during PKCα and δ knockdown could be influenced by upregulation of VEGFR1, but there is no indication that changes in VEGF signaling during PKCε knockdown can be attributed to changes in VEGFR1 mRNA expression.

[3] = control siRNA condition, VEGF 1 nM, 5 minutes
[4] = GFX 1 μM, 30 minutes pre-incubation, with or without insulin or VEGF

For `COC[C@H]1OC(=O)c2coc3c2[C@@]1(C)C1=C(C3=O)[C@@H]2CCC(=O)[C@@]2(C)C[C@H]1OC(C)=O` [wortmannin], the inhibition at 0.1 µM ([1]; Bos taurus, BAEC, wortmannin 100 nM, 30 minutes, VEGF 1 nM, 5 minutes, read-out: inhibition of VEGF-stimulated eNOS phosphorylation) was 30 ± 9% and the “eNOS phosphorylation, % of basal” value ([1]; wortmannin 100 nM, 30 minutes, unstimulated) was 63±1 % of basal.

For insulin: bovine insulin (Sigma), the “Akt Ser473 phosphorylation increased after stimulation” value ([2]; 5 minutes) was 3.7±0.7 fold and the “eNOS Ser1179 phosphorylation increased during stimulation” value ([1]; BAEC, 5 minutes) was 1.8±0.2 fold.

In the case of VEGF, the “Akt Ser473 phosphorylation increased after stimulation” value ([2]; 5 minutes) is reported as 2.9±0.8 fold, the “VEGF-stimulated Akt phosphorylation, fold increase” value [2, 3] is reported as 1.7±0.1 fold and the “eNOS Ser1179 phosphorylation increased during stimulation” value ([1]; BAEC, 5 minutes) is reported as 2.6±0.5 fold. For the same molecule, the “VEGF-stimulated eNOS phosphorylation, fold increase” value [1, 3] was 5.2±0.5 fold, the “translocation of PKCα from cytosol to membrane fractions” value (PKCα) was “stimulated translocation” and the “maximal decrease in cytosol expression of PKCα” value (PKCα; VEGF 1 nM, at 3 minutes) was 18±10%. For the same molecule, the “maximal increase in membrane expression of PKCα” value (PKCα; VEGF 1 nM, at 3 minutes) was 72±57%, the “VEGF-increased phosphorylation of Erk1/2” value (Erk1/2 phosphorylation) was 10±1.8 fold and the “VEGF-increased BrdU incorporation” value (BAEC) was 34%. The “VEGF-stimulated decrease in VEGFR2 protein” value (VEGFR2) was 12±3%, the “translocation of PKCδ from cytosol to membrane fractions” value (PKCδ) was “stimulated translocation” and the “maximal decrease in cytosol expression of PKCδ” value (PKCδ; VEGF 1 nM, at 3 minutes) was 29±25%. The “maximal increase in membrane expression of PKCδ” value (PKCδ; VEGF 1 nM, at 10 minutes) was 39±10%, the “translocation of PKCε from cytosol to membrane fractions” value (PKCε) was “stimulated translocation” and the “maximal decrease in cytosol expression of PKCε” value (PKCε; VEGF 1 nM, at 3 minutes) was 57±21%. For the same molecule, the “maximal increase in membrane expression of PKCε” value (PKCε; VEGF 1 nM, at 3 minutes) was 31±5%.

For `CN(C)CCCn1cc(C2=C(c3c[nH]c4ccccc34)C(=O)NC2=O)c2ccccc21` [GFX, GF109203X], the “effect on the actions of PMA on Akt phosphorylation” value [2, 4] was “completely prevented” and the “effect on the actions of PMA on eNOS phosphorylation” value [1, 4] was “completely prevented”.

In the case of `CCCCCCCCCCCCCC(=O)O[C@@H]1[C@@H](C)[C@@]2(O)[C@@H](C=C(CO)C[C@]3(O)C(=O)C(C)=C[C@@H]23)[C@@H]2C(C)(C)[C@]12OC(C)=O` [PMA, phorbol-12-myristate-13-acetate], the “decrease in Akt Ser473 phosphorylation” value ([2]; after VEGF stimulation (1 nM, 5 minutes)) is reported as 79±4%, the “decrease in Akt Ser473 phosphorylation” value ([2]; after insulin stimulation (100 nM, 5 minutes)) is reported as 81±4% and the “decrease in Akt Ser473 phosphorylation” value ([2]; basal state) is reported as 59±12%. For the same molecule, the “eNOS Ser1179 phosphorylation increase when VEGF was preceded by PMA” value ([1]; PMA 100 nM, 30 minutes, VEGF 1 nM, 5 minutes) was 2.7±0.4 fold, the “eNOS Ser1179 phosphorylation increase when insulin was preceded by PMA” value ([1]; PMA 100 nM, 30 minutes, insulin 100 nM, 5 minutes) was 1.2±0.2 fold and the “increase in VEGF-stimulated eNOS Ser1179 phosphorylation” value ([1]; PMA in the presence of wortmannin) was 50±9%. The “translocation of PKCα from cytosol to membrane fractions” value (PKCα) was “stimulated translocation”, the “translocation of PKCδ from cytosol to membrane fractions” value (PKCδ) was “stimulated translocation” and the “translocation of PKCε from cytosol to membrane fractions” value (PKCε) was “stimulated translocation”.

B1: placental growth factor: placental growth factor, which activates VEGFR1 but not VEGFR2 (protein, UniProt P49763 19-221, looked up)
Placenta growth factor: LPAVPPQQWALSAGNGSSEVEVVPFQEVWGRSYCRALERLVDVVSEYPSEVEHMFSPSCVSLLRCTGCCGDENLHCVPVETANVTMQLLKIRSGDRPSYVELTFSQHVRCECRHSPGRQSPDMPGDFRADAPSFLPPRRSLPMLFRMEWGCALTGSQSAVWPSSPVPEEIPRMHPGRNGKKQQRKPLREKMKPERCGDAVPRR
For B1, the “phosphorylation of eNOS, Akt, Erk, or p38” value (eNOS, Akt, Erk, or p38) was “did not increase”.
